# Assay results taken from patent US8334107B2, “Detection systems utilizing supported lipid bilayers” (priority 2005, dated 2012).
# B1: FcγRIIb: low affinity IgG receptor, single polypeptide chain of 310 amino acids (protein, UniProt P31994 43-310, looked up)
# Low affinity immunoglobulin …: TPAAPPKAVLKLEPQWINVLQEDSVTLTCRGTHSPESDSIQWFHNGNLIPTHTQPSYRFKANNNDSGEYTCQTGQTSLSDPVHLTVLSEWLVLQTPHLEFQEGETIVLRCHSWKDKPLVKVTFFQNGKSKKFSRSDPNFSIPQANHSHSGDYHCTGNIGYTLYSSKPVTITVQAPSSSPMGIIVAVVTGIAVAAIVAAVVALIYCRKKRISALPGYPECREMGETLPEKPANPTNPDEADKVGAENTITYSLLMHPDALEEPDDQNRI
# How the values were obtained:
# anionic phospholipids [1] = assay: Affinity of PLA2 for anionic phospholipids (Kim et al.); format: binding
# Excerpt: From FIG. 18, the association constant (corresponding to the reciprocal of the point of half saturation) for nMLT and sMLT with DMPG were 5×10^6 M^−1 and 1.7×10^6 M^−1, respectively. […] Lower concentrations of nMLT, in comparison to sMLT, were required to disrupt the DMPG lipid bilayer. This might be attributed to the fact that nMLT contains some phospholipase A2 (PLA2) as a contaminant. PLA2 has a high affinity for anionic phospholipids, with an association constant of 0.5×10^10 M^−1 (Kim et al., Anal. Chem. 250, 109-116 (1997)), which is about 3000 fold higher than that of MLT. Although PLA2 activity requires calcium, which is not present in the experimental system, it has been reported that even upon addition of EDTA to natural MLT, PLA2 maintains its activity, probably due to formation of a tight complex with calcium with PLA2 (Dempsey, C. E. Biochim. Biophys. Acta 1990, 1031, 143-161).
# lipid bilayer = assay: Superquenching of fluorescent polymer coated lipid bilayer beads (general statement); format: biochemical; conditions: streptolysin O with cholesterol-containing lipids, mellitin with anionic lipids
# Excerpt: On the other hand, some test agents may only lead to gaps or smaller interruptions of the lipid bilayer, for example, as a result of insertion of a channel- or pore-forming proteins such as gramicidin and hemolysin. In either case, the result is either complete or partial superquenching of the fluorescent polymer. In general, non-porous beads are used for such quenching assays because the quenchable polymer is preferably coated onto the beads and is not impregnated into the beads.
# anionic phospholipids [2] = conditions: cited from earlier work
# [3] = test system: cholesterol (10%, molar ratio) containing lipid membrane; assay: Release of dye from porous particles coated with cholesterol containing lipid membrane by streptolysin-O; format: biochemical; conditions: low concentrations of streptolysin-O versus control without
# Experimental: FIGS. 22A-B illustrate one aspect of the invention—drug and/or dye release from the present lipid-coated particles. FIG. 22A is a graph showing release of dye from porous particles (containing dye inside) where the particles are coated with a cholesterol (10%, molar ratio) containing lipid membrane. As increasing amounts of streptolysin-O are added (solid square symbols represent lower concentration than solid ovals), more dye is released. […] FIG. 22B illustrates how streptolysin-O can disrupt cholesterol-containing lipid bilayer membranes, leading to release of materials (e.g., drugs or antibiotics) enclosed within the membrane. Streptolysin-O is an anti-microbial protein that preferably binds to cholesterol and can disrupt cholesterol-containing membranes.
# monomeric IgG = conditions: cited from earlier work
Molecule,association constant relative to that of MLT (anionic phospholipids [1]),effect on the lipid bilayer (lipid bilayer),association constant (anionic phospholipids [2]) [M⁻¹],release of dye [3],Kd (monomeric IgG) [nM]
"PLA2: lipolytic enzyme, contaminant of natural melittin",about 3000 fold,total disruption of the bilayer,5e+09,–,–
streptolysin-O: anti-microbial protein that preferably binds to cholesterol and can disrupt cholesterol-containing membranes,–,total disruption of the bilayer,–,greater than observed for control,–
B1,–,–,–,–,~1000
